Measurements reported in article PMC6363832 (Cancer epidemiology, biomarkers & prevention : a …, 2018).

How the values were obtained:
Assay type in all cases: biochemical
Conditions in all cases: NADPH regenerating system, 50 mM potassium phosphate, 37 °C; HEK293 microsomes
[1] = biological target: T1, wt FMO5 (Homo sapiens, UniProt P49326); assay: benzydamine N-oxidation, UPLC-MS/MS
T1 sequence (P49326 1-533): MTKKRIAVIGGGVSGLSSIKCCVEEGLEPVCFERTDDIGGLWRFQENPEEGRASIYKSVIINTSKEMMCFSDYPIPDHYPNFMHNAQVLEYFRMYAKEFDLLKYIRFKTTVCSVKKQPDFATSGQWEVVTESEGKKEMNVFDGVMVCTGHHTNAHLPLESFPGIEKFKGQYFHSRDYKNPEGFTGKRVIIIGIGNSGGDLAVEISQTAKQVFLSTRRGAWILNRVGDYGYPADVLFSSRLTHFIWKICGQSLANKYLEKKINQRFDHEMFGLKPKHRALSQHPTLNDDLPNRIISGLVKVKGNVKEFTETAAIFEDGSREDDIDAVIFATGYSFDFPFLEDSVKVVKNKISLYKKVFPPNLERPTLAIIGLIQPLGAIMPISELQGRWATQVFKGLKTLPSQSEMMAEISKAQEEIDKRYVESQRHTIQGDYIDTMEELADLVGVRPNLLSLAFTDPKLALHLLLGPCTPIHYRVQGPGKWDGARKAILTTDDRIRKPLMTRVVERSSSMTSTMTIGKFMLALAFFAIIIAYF

[2] = biological target: T2, wt FMO4 (Homo sapiens, UniProt P31512); assay: benzydamine N-oxidation, UPLC-MS/MS
T2 sequence (P31512 1-558): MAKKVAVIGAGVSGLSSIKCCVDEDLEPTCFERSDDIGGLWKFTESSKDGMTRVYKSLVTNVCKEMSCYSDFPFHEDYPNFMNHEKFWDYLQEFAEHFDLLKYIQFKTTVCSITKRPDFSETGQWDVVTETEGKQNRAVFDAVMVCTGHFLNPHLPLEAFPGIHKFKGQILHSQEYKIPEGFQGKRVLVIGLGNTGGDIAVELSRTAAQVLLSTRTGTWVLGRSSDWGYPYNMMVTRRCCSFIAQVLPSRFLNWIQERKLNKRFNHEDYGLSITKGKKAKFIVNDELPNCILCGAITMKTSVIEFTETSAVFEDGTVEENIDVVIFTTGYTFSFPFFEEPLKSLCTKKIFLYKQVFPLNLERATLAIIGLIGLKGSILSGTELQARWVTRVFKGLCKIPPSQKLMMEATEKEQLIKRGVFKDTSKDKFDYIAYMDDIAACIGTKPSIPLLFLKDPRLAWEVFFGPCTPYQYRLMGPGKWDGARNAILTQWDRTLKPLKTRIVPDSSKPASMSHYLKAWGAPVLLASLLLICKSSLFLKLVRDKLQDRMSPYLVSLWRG

[3] = biological target: T1, wt FMO5; assay: nicotine-N'-oxide formation, UPLC-MS/MS
[4] = biological target: T2, wt FMO4; assay: nicotine-N'-oxide formation, UPLC-MS/MS

Km [1] [mM] | Km [2] [mM] | Compound | Km [3] [mM] | Km [4] [mM]
> 2 | > 3 | CN(C)CCCOc1nn(Cc2ccccc2)c2ccccc12 [benzydamine] |  | 
 |  | CN1CCC[C@H]1c1cccnc1 [compound 4, nicotine] | > 5 | > 5
